Test results from patent publication US5626869A, “Pharmaceutical composition containing a defined lipid system” (Pharmacia & Upjohn AB, priority 1992, dated 1997).

Test system: FXa
Conditions: in vivo
Procedure: New Zealand white rabbits of both sexes, weighing 2.5-3.5 kg were used in all experiments. […] The rabbits were anaesthetized with Mebumal, 20 mg/kg. The anaesthesia was subsequently maintained as required. The animals were shaved and a medial laparotomy performed. The test compounds were then injected directly into the duodenum, after which the peritoneal cavity was closed. Rectal administration was performed by means of a syringe coupled to a plastic tube designed for use in the rectum of rabbits. The dosage was checked by weighing of the syringe and connecting tubings before and after administering the test compounds.
Blood samples (1 ml) were collected at 0.25, 0.5, 0.75, 1, 1.5, 2, 2.5, 3, 4, 5, 6, 7, 8, 9, and 10 hours with the aid of catheter inserted in the ear artery and mixed with sodium […] to a final concentration of 0.04M. The tubes were kept on ice until centrifuged at 800 g for 10 minutes. The anti-FXa activity in plasma was determined with an initial rate assay using bovine FXa (Kabi Pharmacia) and the chromogenic substrate S-2222.

heparin
degree of absorption compared with Fragmin: significantly lower than that of Fragmin® | rectal absorption when admixed with the lipid system: significantly increased | anti-FXa activity detected in plasma (2 mg/kg): detectable levels of anti-FXa activity | average absorption (rabbit, 2 mg/kg): 15.7%±8
